Data on 4 compounds can be found in patent US20200216863A1, “Use of renewable deep eutectic solvents in a one-pot process for a biomass” (National Technology & Engineering Solutions of Sandia, LLC, priority 2019, published 2020).

One series relates to yeast. The settings on record: cited from earlier work.
The next series has as its system yeast strain JBEI-9009. Format: cell-based. The method, then:
Next, in order to test the feasibility of C5/C6 sugar cofermentation and thus to further improve the economic feasibility of the process,(22) the yeast strain JBEI-9009, developed in our lab for optimized xylose consumption,(30) was used for further experiments.
(§1) The effect of DES-Ch12 supplementation on growth and carbon utilization of JBEI-9009 was analyzed in a plate reader-based assay. […] To test if the presence of DES-Ch12 in the media impairs the ability of the strain JBEI-9009 to efficiently utilize xylose, the strain was cultivated in CSM media with 2 wt % xylose containing 10 wt % Ch12 and final samples were taken for HPLC measurements.

Series [1] concerns unmodified control strain. Format: cell-based, yeast. As to the method: as §1

Turning to `O=C(O)/C=C/c1ccc(O)cc1` [p-coumaric acid], in the series with yeast, the “concentration required for inhibition of yeast growth” value is on record as roughly 1 mM. As for `O=C(O)c1ccccc1` [Benzoic acid], the “concentration required for inhibition of yeast growth” value in the series on yeast is listed as roughly 1 mM.

[Ch][Cl]-2glycerol [Ch12]: the growth tolerance result (with yeast strain JBEI-9009; in series [1]) was “without showing significant growth limitations” in each case. In addition, the lag phase result in the series on yeast strain JBEI-9009 is on record as “longer lag phase”. In the case of `O=Cc1ccc(CO)o1` [HMF, hydroxymethylfurfural], in the series with yeast, the “concentration with significant inhibition of yeast growth” value was 3 g/L and the “ethanol yield in presence of inhibitor” value is reported as 89%.
